US11851421B2, “Near-infrared cyanine dyes and conjugates thereof” (BRACCO IMAGING S.P.A., priority 2020, dated 2023)

Legend:
[1] = Optical properties: excitation/emission maxima and absolute fluorescence quantum yield; type: physicochemical
Experimental: A dual-beam UV-VIS spectrophotometer (Lambda 40, Perkin Elmer) was used to determine the absorbance (Abs) of the compounds of the invention. Emission/excitation (Em/Ex) spectra and absolute fluorescence quantum yield (ϕ) measurements were carried out on a spectrofluorometer (FluoroLog-3 1IHR-320, Horiba Jobin Yvon) equipped with an F-3018 integrating sphere accessory. The measurements were performed using an excitation wavelength at maximum absorbance of different dyes, and the sample was excited with a 450 W Xenon Light Source. Detection was performed by photomultiplier tubes (PMT-NIR) cooled detector or by TBX-04 detector. Dye solutions were carefully prepared to have an absorbance lower than 0.1 (optical densities) to minimize re-absorption phenomena.
The compounds of the invention have been characterized in terms of their optical properties in vitro in aqueous medium (i.e., water/PBS pH 7.4) and in a clinical chemistry control serum (Seronorm, Sero SA), mimicking the chemical composition and optical properties of human serum. All dye or dye-conjugate solutions were freshly prepared. ICG and S0456 were used as commercial references.
In particular, the excitation and emission maxima and the absolute fluorescence quantum yield (Φ) of representative compounds of formula (I) and conjugates of formula (II) are shown in Table II.

[2] = biological target: T1, human serum albumin (HSA) (Homo sapiens, UniProt P02768); assay: Binding affinity to human serum albumin (absorbance peak shift or ultrafiltration method)
T1 construct: purchased Sigma Aldrich A9511
Experimental: An analysis of the binding affinity of the compounds of the invention to human albumin was carried out and the results compared with ICG and […] as a reference. Binding affinity to human serum albumin (HSA; Sigma Aldrich, A9511) was measured using two methods, according to the level of binding affinity of the compounds. The first method, optimal for compounds which strongly interact with HSA, is based on the analysis of the absorbance spectrum peak shift after the incubation of the dye in solutions containing HSA. […] The measure was performed at the maximum absorbance wavelength of the shifted peak. The second method, optimal for compound with low affinity for HSA, is based on measuring the variation of the absorbance of solutions containing the dye and various concentrations of HSA after ultrafiltration. […] In the first method, ΔA/b corresponds to the absorbance measured for each sample, whereas in the second method ΔA/b is obtained subtracting the absorbance of the control sample (dye without HSA) to the absorbance of each other sample.

[3] = biological target: T2, human recombinant integrin αvβ3 (Homo sapiens, UniProt P05106+P06756); assay: Receptor binding affinity ELISA (Vitronectin-coated plates); conditions: duplicate, read-out: Receptor affinity (IC50, nM ± St. Dev.)
T2 construct: purchased R&D Systems
Experimental: Briefly, 96-well ELISA plates were coated overnight at 4° C. with the extracellular matrix (ECM) protein Vitronectin in carbonate buffer (15 mM Na2CO3, 35 mM NaHCO3, pH 9.6). Each well was then washed with PBS-T-buffer (phosphate-buffered saline/Tween20, 137 mM NaCl, 2.7 mM KCl, 10 mM Na2HPO4, 2 mM KH2PO4, 0.01% Tween20, pH 7.4) and blocked for 1 h at RT with TS-B-buffer (Tris-saline/BSA buffer; 20 mM Tris-HCl, 150 mM NaCl, 1 mM CaCl2, 1 mM MgCl2, 1 mM MnCl2, pH 7.5, 1% BSA). In the meantime, a dilution series of the compound and internal standard was prepared in an extra plate. After washing the assay plate three times with PBS-T, 50 μL of the dilution series were transferred to each well. 50 μL of a solution of human recombinant integrin αvβ3 (R&D Systems, 1 μg/mL) in TS-B-buffer was transferred to the wells and incubated for 1 h. The plate was washed three times with PBS-T buffer, and then primary antibody anti-αvβ3 was added to the plate. After incubation and washing three times with PBS-T, the secondary anti-IgG peroxidase-labeled antibody was added to the plate and incubated for 1 h. After washing the plate three times with PBS-T, the plate was developed by quick addition of 3,3′,5,5′-tetrametylbenzidine (TMB) and incubated for 5 min in the dark. The reaction was stopped with 3 M H2SO4, and the absorbance was measured at 450 nm with a plate reader (Victor3, Perkin Elmer).
The IC50 of the representative Compounds 1, 2 and 4 was tested in duplicate, and the resulting inhibition curves were analyzed using GraphPad Prism version 4.0 for Windows (GraphPad Software). The inflection point defines the IC50 value.

[4] = tested on: WM-266-4 human melanoma cells; assay: Cell uptake by FACS in presence of human serum; type: cell-based; conditions: WM-266-4 cells; fluorescence intensity in absence of serum = 100%
Experimental: The human melanoma cell line WM-266-4 (ATCC, CRL-1676) was used as in vitro model to assess the cell uptake of representative integrin-binding Compounds 1, 2 and 4, based on the high expression of the integrin receptors, particularly αvβ3, on the membrane of these cells (Capasso et al., PlosOne 2014).
Adherent cells at about 70% confluence were incubated with the Compounds 1 or 3 (1 μM) for 2 h at 37° C. (5% CO2) in presence of Dulbecco's Modified Eagle's Medium (DMEM) supplemented with 10% FBS, 2 mM glutamine, 100 IU/mL penicillin and 100 μg/mL streptomycin. […] Fluorescence Activated Cell Sorting (FACS) was used to detect the fluorescence signal within the cells, as measure of cell uptake. Samples were excited with an Argon laser and the emission detected using a 670 nm longpass filter. Values of fluorescence intensity were obtained from the histogram statistic produced by the instrument software.
The residual internalization was calculated by considering the value of fluorescence intensity in absence of the competitor as 100%.
Furthermore, to assess the effect of biological fluids on the cell uptake, parallel experiments were performed incubating the cells with a compounds of the invention in presence of human serum from male AB plasma (Sigma Aldrich, H4522). The residual internalization was calculated by considering the value of fluorescence intensity in absence of the serum as 100%. […]

[5] = tested on: human glioblastoma U87MG cells; assay: Tumor uptake in animal model of human glioblastoma (subcutaneous), ex vivo optical imaging; conditions: ex vivo tumor-to-muscle, 24 h after i.v. administration, glioblastoma tumor bearing mice, n = 5/group
Experimental: Tumor uptake experiments were carried out in an animal model of human glioblastoma (subcutanous) overexpressing the integrin receptors, particularly αvβ3. Briefly, human glioblastoma U87MG cells (ATCC, HTB-14) were cultured in Eagle's Minimum Essential Medium (EMEM) supplemented with 10% Fetal Bovine Serum (FBS), 2 mM glutamine, 100 IU/mL penicillin, 100 μg/mL streptomycin. Male Balb/c nu/nu mice, 4-6 weeks of age (Charles River Laboratories), underwent subcutaneous implantation (right flank) of about 10 million cells suspended in 0.1 mL of EMEM. Mice were housed 4 per cage with food and water ad libitum. Animals were fed with VRF1 (P) sterile diet (Special Diets Services Ltd) up to the end of the acclimation period (5 days). Then, AIN-76a rodent diet irradiated (Research Diets), a special diet that reduces auto-fluorescence, was used up to the end of the experiments. Tumor growth was monitored by longitudinal assessments using a caliper up to the target size of 300-600 mm^3 (3-4 weeks after cell implantation). […] Regions of interest (ROIs) were drawn on the excised tumor and healthy muscle tissues to evaluate signal intensity (expressed as Average Radiant Efficiency). The ratio between the fluorescence signal in the tumor and in the muscle (background tissue) was then calculated to assess the contrast.

[6] = Seronorm (clinical chemistry control serum)

T1 sequence (P02768 25-609): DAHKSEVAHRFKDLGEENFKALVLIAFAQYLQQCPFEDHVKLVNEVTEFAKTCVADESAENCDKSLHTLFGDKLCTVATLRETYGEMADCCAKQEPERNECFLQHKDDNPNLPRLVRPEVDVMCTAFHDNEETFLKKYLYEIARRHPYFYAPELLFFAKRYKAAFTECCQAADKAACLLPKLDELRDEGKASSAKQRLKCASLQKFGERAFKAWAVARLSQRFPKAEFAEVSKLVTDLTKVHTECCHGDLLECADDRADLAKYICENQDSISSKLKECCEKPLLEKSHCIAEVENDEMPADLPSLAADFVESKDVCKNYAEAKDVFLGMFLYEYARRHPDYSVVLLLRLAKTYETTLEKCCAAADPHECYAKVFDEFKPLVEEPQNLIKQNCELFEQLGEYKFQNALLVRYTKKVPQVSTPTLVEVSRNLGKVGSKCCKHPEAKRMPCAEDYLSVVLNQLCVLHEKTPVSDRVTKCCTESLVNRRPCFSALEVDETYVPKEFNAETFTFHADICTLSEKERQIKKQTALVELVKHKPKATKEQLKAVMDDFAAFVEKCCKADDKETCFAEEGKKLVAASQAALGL
T2 sequence (P06756 31-992 limits assumed): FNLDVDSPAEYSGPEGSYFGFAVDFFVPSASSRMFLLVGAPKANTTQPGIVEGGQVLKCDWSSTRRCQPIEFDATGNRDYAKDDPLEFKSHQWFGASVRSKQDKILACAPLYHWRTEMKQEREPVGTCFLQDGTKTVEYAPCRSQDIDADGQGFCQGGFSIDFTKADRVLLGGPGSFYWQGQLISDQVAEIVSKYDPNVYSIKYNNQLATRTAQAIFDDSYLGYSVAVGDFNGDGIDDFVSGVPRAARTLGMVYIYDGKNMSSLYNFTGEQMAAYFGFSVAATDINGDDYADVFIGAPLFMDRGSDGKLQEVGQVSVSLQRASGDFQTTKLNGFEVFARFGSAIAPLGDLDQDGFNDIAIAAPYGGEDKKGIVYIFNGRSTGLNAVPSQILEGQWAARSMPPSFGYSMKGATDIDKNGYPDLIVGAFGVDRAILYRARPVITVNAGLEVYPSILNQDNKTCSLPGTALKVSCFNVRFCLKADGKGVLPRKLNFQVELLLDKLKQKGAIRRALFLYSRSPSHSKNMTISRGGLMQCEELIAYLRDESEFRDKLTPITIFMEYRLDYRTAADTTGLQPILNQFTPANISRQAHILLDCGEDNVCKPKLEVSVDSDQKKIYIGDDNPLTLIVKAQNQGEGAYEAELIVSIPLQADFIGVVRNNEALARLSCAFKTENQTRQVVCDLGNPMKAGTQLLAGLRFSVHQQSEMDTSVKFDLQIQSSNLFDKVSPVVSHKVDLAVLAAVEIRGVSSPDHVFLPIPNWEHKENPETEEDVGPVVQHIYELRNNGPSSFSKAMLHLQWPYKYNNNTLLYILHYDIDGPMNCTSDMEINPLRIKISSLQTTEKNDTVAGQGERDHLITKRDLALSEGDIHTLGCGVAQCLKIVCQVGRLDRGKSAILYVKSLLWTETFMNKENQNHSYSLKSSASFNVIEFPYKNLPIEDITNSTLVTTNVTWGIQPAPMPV
T2 sequence (P05106 27-718 limits assumed): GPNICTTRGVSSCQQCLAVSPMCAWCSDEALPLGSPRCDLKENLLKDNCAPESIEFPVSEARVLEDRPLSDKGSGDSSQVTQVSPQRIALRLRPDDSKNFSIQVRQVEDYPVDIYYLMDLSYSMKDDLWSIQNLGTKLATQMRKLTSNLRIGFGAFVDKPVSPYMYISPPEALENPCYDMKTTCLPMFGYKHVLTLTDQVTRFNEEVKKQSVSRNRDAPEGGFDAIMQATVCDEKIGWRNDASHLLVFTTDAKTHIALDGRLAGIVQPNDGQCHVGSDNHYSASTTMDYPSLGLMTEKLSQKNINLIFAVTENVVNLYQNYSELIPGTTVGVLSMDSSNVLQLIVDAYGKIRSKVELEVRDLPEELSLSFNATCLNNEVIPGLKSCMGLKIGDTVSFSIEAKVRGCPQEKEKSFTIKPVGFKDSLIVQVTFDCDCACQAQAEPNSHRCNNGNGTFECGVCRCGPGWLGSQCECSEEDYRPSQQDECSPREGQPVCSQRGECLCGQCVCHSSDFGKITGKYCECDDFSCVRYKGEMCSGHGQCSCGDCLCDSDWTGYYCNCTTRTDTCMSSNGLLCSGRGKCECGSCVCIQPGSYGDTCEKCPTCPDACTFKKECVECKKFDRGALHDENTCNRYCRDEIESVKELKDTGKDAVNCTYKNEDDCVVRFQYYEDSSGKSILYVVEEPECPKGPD

| Max Em (emission maximum) ([1]; PBS pH 7.4) | Max Ex (excitation maximum) ([1]; PBS pH 7.4) | Φ (absolute fluorescence quantum yield) ([1]; PBS pH 7.4) | Φ (absolute fluorescence quantum yield) [1, 6] | Kd [2] | HSA affinity (KA) [2] | SMILES | IC50 [3] | Residual cell uptake in presence of human serum [4] | Tumor-to-background ratio (mean ± St. Dev) [5] |
| --- | --- | --- | --- | --- | --- | --- | --- | --- | --- |
| 786 nm | 764 nm | 6.3% | 11.5% | 154 µM | – | CC1(C)C(/C=C/C2=C(c3ccc(CCC(=O)O)cc3)C(=C/C=C3/N(CCCCS(=O)(=O)O)c4ccc(C(=O)NCC(O)C(O)C(O)C(O)CO)cc4C3(C)C)/CCC2)=[N+](CCCCS(=O)(=O)[O-])c2ccc(C(=O)NCC(O)C(O)C(O)C(O)CO)cc21 (stereo not drawn) [Compound 11] | – | – | – |
| 801 nm | 780 nm | 6.3% | 7.7% | 72.5 µM | – | CC1(C)C(/C=C/C2=C(Oc3ccccc3)C(=C/C=C3/N(CCCCS(=O)(=O)O)c4ccc(C(=O)NC5C(O)C(O)C(O)C(O)C5O)cc4C3(C)C)/CCC2)=[N+](CCCCS(=O)(=O)[O-])c2ccc(C(=O)NC3C(O)C(O)C(O)C(O)C3O)cc21 (stereo not drawn) [Compound 20] | – | – | – |
| 790 nm | 769 nm | 5.6% | 12.8% | 30.9 µM | – | CC1(C)C(/C=C/C2=C(c3ccccc3)C(=C/C=C3/N(CCCCS(=O)(=O)O)c4ccc(C(=O)NC(CO)(CO)CO)cc4C3(C)C)/CCC2)=[N+](CCCCS(=O)(=O)[O-])c2ccc(C(=O)NC(CO)(CO)CO)cc21 [Compound 21] | – | – | – |
| 804 nm | 781 nm | 6.2% | 10.5% | 68.5 µM | – | CC1(C)C(/C=C/C2=C(Oc3ccccc3)C(=C/C=C3/N(CCCCS(=O)(=O)O)c4ccc(C(=O)NCC(O)CO)cc4C3(C)C)/CCC2)=[N+](CCCCS(=O)(=O)[O-])c2ccc(C(=O)NCC(O)CO)cc21 (stereo not drawn) [Compound 18] | – | – | – |
| 803 nm | 782 nm | 6.1% | 9.8% | 120 µM | – | CC1(C)C(/C=C/C2=C(c3ccccc3)C(=C/C=C3/N(CCCCC(=O)O)c4ccc(C(=O)NCC(O)C(O)C(O)C(O)CO)cc4C3(C)C)/CCC2)=[N+](CCCCS(=O)(=O)[O-])c2ccc(C(=O)NCC(O)C(O)C(O)C(O)CO)cc21 (stereo not drawn) [Compound 22] | – | – | – |
| 788 nm | 768 nm | 5.5% | 11.8% | 81.6 µM | – | CC1(C)C(/C=C/C2=C(c3ccccc3)C(=C/C=C3/N(CCCCS(=O)(=O)O)c4ccc(C(=O)NCC(O)C(O)C(O)C(O)CO)cc4C3(C)C)/CCC2)=[N+](CCCCS(=O)(=O)[O-])c2ccc(C(=O)NCC(O)C(O)C(O)C(O)CO)cc21 (stereo not drawn) [Compound 17] | – | – | – |
| – | – | – | – | 11 µM | – | CC1(C)C(/C=C/C2=C(Oc3ccc(S(=O)(=O)O)cc3)C(=C/C=C3/N(CCCCCC(=O)O)c4ccc(C(=O)NCC(O)C(O)C(O)C(O)CO)cc4C3(C)C)/CCC2)=[N+](CCCCS(=O)(=O)[O-])c2ccc(C(=O)NCC(O)C(O)C(O)C(O)CO)cc21 (stereo not drawn) [Compound 15] | – | – | – |
| 803 nm | 782 nm | 3.9% | 7.7% | – | 350,000 M^−1 | CC1(C)C(/C=C/C2=C(Cl)C(=C/C=C3/N(CCCCS(=O)(=O)[O-])c4ccc(S(=O)(=O)[O-])cc4C3(C)C)/CCC2)=[N+](CCCCS(=O)(=O)[O-])c2ccc(S(=O)(=O)[O-])cc21.[Na+].[Na+].[Na+] [Compound S0456, reference compound] | – | – | – |
| 810 nm | 780 nm | 1.5% | 7.8% | – | – | CC1(C)C(/C=C/C=C/C=C/C=C2\N(CCCCS(=O)(=O)O)c3ccc4ccccc4c3C2(C)C)=[N+](CCCCS(=O)(=O)[O-])c2ccc3ccccc3c21 [ICG, Indocyanine green, reference compound] | – | – | – |
| 805 nm | 783 nm | 6.5% | 10.9% | 35.3 µM | – | CC1(C)C(/C=C/C2=C(Oc3ccccc3)C(=C/C=C3/N(CCCCS(=O)(=O)O)c4ccc(C(=O)NC(CO)CO)cc4C3(C)C)/CCC2)=[N+](CCCCS(=O)(=O)[O-])c2ccc(C(=O)NC(CO)CO)cc21 [Compound 19] | – | – | – |

| SMILES | Max Em (emission maximum) ([1]; PBS pH 7.4) | Max Ex (excitation maximum) ([1]; PBS pH 7.4) | Φ (absolute fluorescence quantum yield) ([1]; PBS pH 7.4) | Φ (absolute fluorescence quantum yield) [1, 6] | Kd [2] | HSA affinity (KA) [2] | IC50 [3] | Residual cell uptake in presence of human serum [4] | Tumor-to-background ratio (mean ± St. Dev) [5] |
| --- | --- | --- | --- | --- | --- | --- | --- | --- | --- |
| CC1(C)C(/C=C/C2=C(Oc3ccccc3)C(=C/C=C3/N(CCCCCC(=O)NCCCCC4NC(=O)[C@@H](Cc5ccccc5)NC(=O)[C@H](CC(=O)O)NC(=O)CNC(=O)[C@H](CCCNC(=N)N)NC4=O)c4ccc(C(=O)NCC(O)C(O)C(O)C(O)CO)cc4C3(C)C)/CCC2)=[N+](CCCCS(=O)(=O)[O-])c2ccc(C(=O)NCC(O)C(O)C(O)C(O)CO)cc21 (stereo partly drawn) [Compound 4] | 803 nm | 781 nm | 5.0% | 9.9% | 100 µM | – | 1.84 ± 0.38 nM | 85% | 7.64 ± 0.86 |
| CC1(C)C(/C=C/C2=C(c3ccccc3)C(=C/C=C3\N(CCCCCC(=O)NCCCCC4NC(=O)[C@@H](Cc5ccccc5)NC(=O)[C@H](CC(=O)O)NC(=O)CNC(=O)[C@H](CCCNC(=N)N)NC4=O)c4ccc(C(=O)NCC(O)C(O)C(O)C(O)CO)cc4C3(C)C)/CCC2)=[N+](CCCCS(=O)(=O)[O-])c2ccc(C(=O)NCC(O)C(O)C(O)C(O)CO)cc21 (stereo partly drawn) [Compound 3] | 787 nm | 771 nm | 6.4% | 8.1% | – | – | – | – | – |
